# Results reported in ChEMBL document CHEMBL1681724, “Discovery of potent and orally bioavailable heterocycle-based cannabinoid CB1 receptor agonists” (Bioorg Med Chem Lett, 2011).
# System: not listed separately
# Assay: Clearance in rat at 0.4 mg/kg, iv
# Format: ADME, organism-based
# Parameters: dose 0.4 mg/kg, route intravenous
# Settings: in vivo
row,Compound,clearance [mL/min/kg]
1,CN(CC(N)=O)Cc1nc(-c2cn(CC3CCOCC3)c3c(Cl)cccc23)no1,28

# System: not listed separately
# Assay: Half life in rat at 0.4 mg/kg, iv
# Format: ADME, organism-based
# Parameters: dose 0.4 mg/kg, route intravenous
# Settings: in vivo
row,Compound,half-life [h]
1,CN(CC(N)=O)Cc1nc(-c2cn(CC3CCOCC3)c3c(Cl)cccc23)no1,1.4

# System: not listed separately
# Assay: Aqueous solubility of the compound at pH 7.4
# Format: physicochemical
# Settings: aqueous medium
row,Compound,solubility [µg/mL]
1,CC(C)N(CCO)Cc1csc(-c2c(CC3CCOCC3)[nH]c3c(Cl)cccc23)n1,> 10
2,CN(Cc1nc(-c2cn(CC3CCOCC3)c3c(Cl)cccc23)no1)[C@@H](CO)C(N)=O,95
3,O=C(NCCO)C1CCN(Cc2nc(-c3cn(CC4CCOCC4)c4c(Cl)cccc34)no2)CC1,115
4,NC(=O)CNC(=O)[C@@H]1CCCN1Cc1nc(-c2cn(CC3CCOCC3)c3c(Cl)cccc23)ns1,15
5,Clc1cccc2c(-c3nsc(CN4CCCC4)n3)cn(CC3CCOCC3)c12,< 1
6,Clc1cccc2c(-c3nsc(CN4CCCC4)n3)cn(CC3CCCCC3)c12,< 1
7,CCNC(=O)NCc1nc(-c2cn(CC3CCOCC3)c3c(Cl)cccc23)no1,< 1
8,Clc1cccc2c(-c3noc(CN4CCCC4)n3)cn(CC3CCOCC3)c12,< 1
9,CS(=O)(=O)N(CCO)Cc1nc(-c2cn(CC3CCOCC3)c3c(Cl)cccc23)ns1,< 1
10,O=C(O)C1CCCN1Cc1nc(-c2cn(CC3CCOCC3)c3c(Cl)cccc23)ns1 (stereo not drawn),108
11,COCCN(Cc1nc(-c2cn(CC3CCOCC3)c3c(Cl)cccc23)ns1)S(C)(=O)=O,< 1
12,CN(C)S(=O)(=O)N(C)Cc1nc(-c2cn(CC3CCOCC3)c3c(Cl)cccc23)no1,< 1
13,OC[C@H]1CCCN1Cc1nc(-c2cn(CC3CCOCC3)c3c(Cl)cccc23)ns1,< 1
14,CN(CC(=O)NCCO)Cc1nc(-c2cn(CC3CCOCC3)c3c(Cl)cccc23)no1,88
15,COCCN(C)Cc1nc(-c2cn(CC3CCS(=O)(=O)CC3)c3c(Cl)cccc23)ns1,< 1
16,COCC(=O)NCc1nc(-c2cn(CC3CCOCC3)c3c(Cl)cccc23)no1,4
17,CN(CCO)Cc1nc(-c2cn(CC3CCOCC3)c3c(Cl)cccc23)ns1,< 1
18,CC(=O)N[C@@H]1CCN(Cc2nc(-c3cn(CC4CCOCC4)c4c(Cl)cccc34)ns2)C1,16
19,CN(CC(N)=O)Cc1nc(-c2cn(CC3CCOCC3)c3c(Cl)cccc23)no1,21
20,COCCN(C)Cc1nc(-c2cn(CC3CCOCC3)c3c(Cl)cccc23)ns1,< 1

# System: not listed separately
# Assay: Oral bioavailability in rat at 5 mg/kg
# Format: ADME, organism-based
# Settings: in vivo
row,Compound,bioavailability [%]
1,CC(C)N(CCO)Cc1csc(-c2c(CC3CCOCC3)[nH]c3c(Cl)cccc23)n1,4
2,CN(CC(N)=O)Cc1nc(-c2cn(CC3CCOCC3)c3c(Cl)cccc23)no1,53

# Biological target: T1, Cannabinoid receptor 1 (Homo sapiens, UniProt P21554)
# Assay: Displacement of [3H]CP55940 from human cannabinoid CB1 receptor expressed in insect Sf9 cells
# Settings: not given
# T1 sequence (P21554 whole entry): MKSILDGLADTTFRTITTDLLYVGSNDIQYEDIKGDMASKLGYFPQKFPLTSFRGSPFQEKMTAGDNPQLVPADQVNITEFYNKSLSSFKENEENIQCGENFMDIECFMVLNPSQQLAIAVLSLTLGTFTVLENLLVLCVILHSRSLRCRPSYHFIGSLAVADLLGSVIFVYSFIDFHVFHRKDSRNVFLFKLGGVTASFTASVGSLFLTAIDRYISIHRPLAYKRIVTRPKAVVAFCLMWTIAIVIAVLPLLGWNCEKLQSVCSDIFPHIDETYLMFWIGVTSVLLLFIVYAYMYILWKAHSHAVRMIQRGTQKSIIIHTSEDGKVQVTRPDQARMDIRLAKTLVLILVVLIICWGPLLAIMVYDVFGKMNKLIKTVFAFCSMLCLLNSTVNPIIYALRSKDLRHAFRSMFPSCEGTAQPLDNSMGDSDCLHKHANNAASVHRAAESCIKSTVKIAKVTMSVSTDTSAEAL
row,Compound,Ki [nM]
1,CN(CC(N)=O)Cc1nc(-c2cn(CC3CCOCC3)c3c(Cl)cccc23)no1,3.98

# System: not listed separately
# Assay: Cmax in rat at 5 mg/kg, po
# Format: ADME, organism-based
# Parameters: dose 5 mg/kg, route oral
# Settings: in vivo
row,Compound,Cmax [ng/mL]
1,CN(CC(N)=O)Cc1nc(-c2cn(CC3CCOCC3)c3c(Cl)cccc23)no1,173

# System: not listed separately
# Assay: Genotoxicity in Salmonella Typhimurium at 10^-4 M by Ames test
# Format: toxicity
# Settings: salmonella enterica subsp. enterica serovar typhimurium, 100 µM
row,Compound,Activity
1,CN(CC(N)=O)Cc1nc(-c2cn(CC3CCOCC3)c3c(Cl)cccc23)no1,Non-toxic

# System: not listed separately
# Assay: AUC in rat plasma at 0.4 mg/kg, iv
# Format: ADME, organism-based
# Parameters: dose 0.4 mg/kg, route intravenous
# Settings: not given
row,Compound,AUC [ng·h/mL]
1,CN(CC(N)=O)Cc1nc(-c2cn(CC3CCOCC3)c3c(Cl)cccc23)no1,244

# Biological target: T1, Cannabinoid receptor 1
# Assay: Agonist activity at human cannabinoid CB1 receptor expressed in CHO cells by luciferase reporter gene assay
# Format: functional, cell-based
# Settings: not given
row,Compound,EC50 [nM]
1,CC(C)N(CCO)Cc1csc(-c2c(CC3CCOCC3)[nH]c3c(Cl)cccc23)n1,≤ 100
2,CN(Cc1nc(-c2cn(CC3CCOCC3)c3c(Cl)cccc23)no1)[C@@H](CO)C(N)=O,251
3,O=C(NCCO)C1CCN(Cc2nc(-c3cn(CC4CCOCC4)c4c(Cl)cccc34)no2)CC1,126
4,NC(=O)CNC(=O)[C@@H]1CCCN1Cc1nc(-c2cn(CC3CCOCC3)c3c(Cl)cccc23)ns1,398
5,Clc1cccc2c(-c3nsc(CN4CCCC4)n3)cn(CC3CCCCC3)c12,15.8
6,CCNC(=O)NCc1nc(-c2cn(CC3CCOCC3)c3c(Cl)cccc23)no1,2000
7,Clc1cccc2c(-c3noc(CN4CCCC4)n3)cn(CC3CCOCC3)c12,100
8,O=C(O)C1CCCN1Cc1nc(-c2cn(CC3CCOCC3)c3c(Cl)cccc23)ns1 (stereo not drawn),158
9,CN(C)S(=O)(=O)N(C)Cc1nc(-c2cn(CC3CCOCC3)c3c(Cl)cccc23)no1,31.6
10,OC[C@H]1CCCN1Cc1nc(-c2cn(CC3CCOCC3)c3c(Cl)cccc23)ns1,15.8
11,COCCN(C)Cc1nc(-c2cn(CC3CCS(=O)(=O)CC3)c3c(Cl)cccc23)ns1,200
12,CN(CCO)Cc1nc(-c2cn(CC3CCOCC3)c3c(Cl)cccc23)ns1,79.4
13,CC(=O)N[C@@H]1CCN(Cc2nc(-c3cn(CC4CCOCC4)c4c(Cl)cccc34)ns2)C1,794
14,COCCN(C)Cc1nc(-c2cn(CC3CCOCC3)c3c(Cl)cccc23)ns1,79.4

# Biological target: Cannabinoid receptor 2 (Homo sapiens, UniProt P34972)
# Assay: Displacement of [3H]CP55940 from human cannabinoid CB2 receptor expressed in insect Sf9 cells
# Settings: not given
# Chain of Cannabinoid receptor 2 (P34972 whole entry): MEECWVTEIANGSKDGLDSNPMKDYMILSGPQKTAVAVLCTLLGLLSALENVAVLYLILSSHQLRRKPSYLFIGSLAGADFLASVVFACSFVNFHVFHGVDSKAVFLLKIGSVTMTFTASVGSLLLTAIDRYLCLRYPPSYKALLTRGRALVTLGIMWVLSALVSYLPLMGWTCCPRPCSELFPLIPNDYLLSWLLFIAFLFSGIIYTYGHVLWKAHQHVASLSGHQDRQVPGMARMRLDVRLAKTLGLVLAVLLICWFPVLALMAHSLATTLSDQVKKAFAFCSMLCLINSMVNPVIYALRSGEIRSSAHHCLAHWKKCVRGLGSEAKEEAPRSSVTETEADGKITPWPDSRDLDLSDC
row,Compound,Ki [nM]
1,CN(CC(N)=O)Cc1nc(-c2cn(CC3CCOCC3)c3c(Cl)cccc23)no1,6.31

# System: not listed separately
# Assay: Volume of distribution at steady state in rat at 0.4 mg/kg, iv
# Format: ADME, organism-based
# Parameters: dose 0.4 mg/kg, route intravenous
# Settings: in vivo, read-out: Vdss
row,Compound,Vd [L/kg]
1,CN(CC(N)=O)Cc1nc(-c2cn(CC3CCOCC3)c3c(Cl)cccc23)no1,3

# System: not listed separately
# Assay: Tmax in rat at 5 mg/kg, po
# Format: ADME, organism-based
# Parameters: dose 5 mg/kg, route oral
# Settings: in vivo
row,Compound,Tmax [h]
1,CN(CC(N)=O)Cc1nc(-c2cn(CC3CCOCC3)c3c(Cl)cccc23)no1,1

# System: not listed separately
# Assay: Apparent permeability from apical to basolateral side of human Caco2 cells
# Format: ADME, cell-based
# Settings: Caco-2
row,Compound,Papp A→B [×10⁻⁶ cm/s]
1,CN(CC(N)=O)Cc1nc(-c2cn(CC3CCOCC3)c3c(Cl)cccc23)no1,8.3

# System: not listed separately
# Assay: Apparent permeability from basolateral to apical side of human Caco2 cells
# Format: ADME, cell-based
# Settings: Caco-2
row,Compound,Papp B→A [×10⁻⁶ cm/s]
1,CN(CC(N)=O)Cc1nc(-c2cn(CC3CCOCC3)c3c(Cl)cccc23)no1,12.7

# System: not listed separately
# Assay: AUC in rat plasma at 5 mg/kg, po
# Format: ADME, organism-based
# Parameters: dose 5 mg/kg, route oral
# Settings: not given
row,Compound,AUC [ng·h/mL]
1,CN(CC(N)=O)Cc1nc(-c2cn(CC3CCOCC3)c3c(Cl)cccc23)no1,1570
